Assays:
mTORC1 (mTOR/GbL/Raptor) = mTORC1 (mTOR/GbL/Raptor) (Homo sapiens, UniProt P42345); assay: mTOR/GbL/Raptor (mTORC1) ELISA Assay; type: biochemical; settings: 0.2 nM mTORC1, 10 μM ATP, 50 nM NHis-tagged 4E-BP1; phosphorylation of 4E-BP1; read-out: IC50
Procedure, shortened: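 mTORC1 (0.2 nM) phosphorylated NHis-tagged 4E-BP1 (50 nM) with 10 μM ATP in 20 mM Hepes pH 7.2, 10 mM MnCl2, for 120 min at ambient temperature. Product was captured on Ni-chelate plates and detected with anti-phospho-4E-BP1 plus HRP secondary antibody by chemiluminescence.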

PI3Kα = PI3Kα (Homo sapiens, UniProt P42336); assay: PI3K Biochemical Assays (ATP consumption, luciferase-luciferin chemiluminescence); settings: PI3Kα 1.5 nM, ATP 1 μM, PIP2 10 μM; percent of ATP consumed
Procedure, shortened: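 Kinase activity read as percent ATP consumed via luciferase-luciferin chemiluminescence. 1.5 nM enzyme, 1 μM ATP, 10 μM PIP2 in 50 mM Tris pH 7.5, 1 mM EGTA, 10 mM MgCl2, 1 mM DTT, 0.03% CHAPS; ~2 h at ambient temperature, ATP consumption kept to 40-60%.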

Sequence of PI3Kα (P42336 whole entry): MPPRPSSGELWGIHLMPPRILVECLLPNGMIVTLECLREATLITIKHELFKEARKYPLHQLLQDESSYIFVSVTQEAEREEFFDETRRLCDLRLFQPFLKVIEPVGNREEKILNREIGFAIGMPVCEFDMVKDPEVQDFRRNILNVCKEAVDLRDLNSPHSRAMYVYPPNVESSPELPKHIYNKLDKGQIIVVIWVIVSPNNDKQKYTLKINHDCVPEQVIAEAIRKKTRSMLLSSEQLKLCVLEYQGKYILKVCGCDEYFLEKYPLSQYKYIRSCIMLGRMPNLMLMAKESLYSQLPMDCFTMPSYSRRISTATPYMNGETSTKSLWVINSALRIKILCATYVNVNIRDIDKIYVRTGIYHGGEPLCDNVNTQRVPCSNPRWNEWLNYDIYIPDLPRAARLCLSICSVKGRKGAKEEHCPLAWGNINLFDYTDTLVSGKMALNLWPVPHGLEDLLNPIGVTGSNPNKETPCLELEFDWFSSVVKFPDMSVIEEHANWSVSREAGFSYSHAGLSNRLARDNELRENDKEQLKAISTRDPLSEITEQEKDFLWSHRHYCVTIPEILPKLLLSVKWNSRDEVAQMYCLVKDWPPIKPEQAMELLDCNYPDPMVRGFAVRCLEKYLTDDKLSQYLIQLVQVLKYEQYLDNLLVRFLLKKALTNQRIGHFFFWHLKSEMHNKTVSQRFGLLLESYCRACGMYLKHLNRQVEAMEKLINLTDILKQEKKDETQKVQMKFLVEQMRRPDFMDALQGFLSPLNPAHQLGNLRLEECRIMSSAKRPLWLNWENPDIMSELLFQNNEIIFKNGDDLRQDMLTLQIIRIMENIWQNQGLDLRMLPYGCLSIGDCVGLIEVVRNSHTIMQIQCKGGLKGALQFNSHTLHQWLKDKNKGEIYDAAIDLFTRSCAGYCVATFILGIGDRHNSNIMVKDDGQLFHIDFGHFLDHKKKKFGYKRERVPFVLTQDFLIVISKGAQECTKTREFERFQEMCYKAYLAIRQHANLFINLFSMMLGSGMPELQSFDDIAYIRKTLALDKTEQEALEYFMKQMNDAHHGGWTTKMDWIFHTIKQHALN
Sequence of PI3Kα (P27986 whole entry partner): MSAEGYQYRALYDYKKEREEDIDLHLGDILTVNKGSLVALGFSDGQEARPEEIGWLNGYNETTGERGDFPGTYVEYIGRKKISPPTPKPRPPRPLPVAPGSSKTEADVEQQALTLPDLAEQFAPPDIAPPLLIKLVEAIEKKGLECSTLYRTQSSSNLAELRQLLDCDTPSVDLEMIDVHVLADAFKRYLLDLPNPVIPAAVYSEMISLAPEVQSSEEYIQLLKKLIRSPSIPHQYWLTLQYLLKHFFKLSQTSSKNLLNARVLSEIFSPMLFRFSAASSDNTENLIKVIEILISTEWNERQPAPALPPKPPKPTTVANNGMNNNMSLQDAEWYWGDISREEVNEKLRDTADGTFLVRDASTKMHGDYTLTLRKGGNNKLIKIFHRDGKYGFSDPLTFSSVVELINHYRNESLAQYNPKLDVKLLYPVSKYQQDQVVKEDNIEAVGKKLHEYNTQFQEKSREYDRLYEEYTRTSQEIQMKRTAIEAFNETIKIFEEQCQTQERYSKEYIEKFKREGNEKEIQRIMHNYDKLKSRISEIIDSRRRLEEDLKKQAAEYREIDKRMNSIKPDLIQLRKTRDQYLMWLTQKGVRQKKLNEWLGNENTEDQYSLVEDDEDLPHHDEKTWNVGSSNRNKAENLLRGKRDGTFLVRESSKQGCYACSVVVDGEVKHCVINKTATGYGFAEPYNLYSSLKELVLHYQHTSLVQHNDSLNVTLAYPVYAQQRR

Work on `Cc1nc2ccc(-c3ccc4c(c3)CN(C(=O)N3CCCCCCC3)CCO4)cc2[nH]1` [Compound 167, 4-(azocan-1-ylcarbonyl)-7-(2-methyl-1H-benzimidazol-6-yl)-2,3,4,5-tetrahydro-1,4-benzoxazepine] yielded an IC50 (mTORC1 (mTOR/GbL/Raptor)) of 700 to 2600 nM and an IC50 (PI3Kα) of 1000 to 3000 nM.
`Cc1nc2cc(-c3ccc4c(c3)CN(C(=O)N3C[C@H]5CC(C)C[C@H]5C3)CCO4)ccc2[nH]1` (stereo partly drawn) [Compound 90, 7-(2-methyl-1H-benzimidazol-5-yl)-4-{[(3aR,6aS)-5-methylhexahydrocyclopenta[c]pyrrol-2(1H)-yl]carbonyl}-2,3,4,5-tetrahydro-1,4-benzoxazepine] gave an IC50 (mTORC1 (mTOR/GbL/Raptor)) of 50 to 250 nM and an IC50 (PI3Kα) of 200 to 500 nM.
Compound `Cc1nc2ccc(-c3ccc4c(c3)CN(C(=O)N(Cc3ccccc3)C(C)C)CCO4)cc2[nH]1` [Compound 103, 7-(2-methyl-1H-benzimidazol-6-yl)-N-(1-methylethyl)-N-(phenylmethyl)-2,3-dihydro-1,4-benzoxazepine-4(5H)-carboxamide] has an IC50 (mTORC1 (mTOR/GbL/Raptor)) of 50 to 250 nM and an IC50 (PI3Kα) of 1000 to 3000 nM.
`Cc1nc2ccc(-c3ccc4c(c3)CN(C(=O)N3CCCCCC3)CCO4)cc2[nH]1` [Compound 89, 4-(azepan-1-ylcarbonyl)-7-(2-methyl-1H-benzimidazol-6-yl)-2,3,4,5-tetrahydro-1,4-benzoxazepine] was tested, and the IC50 (mTORC1 (mTOR/GbL/Raptor)) was 250 to 700 nM and the IC50 (PI3Kα) was 500 to 1000 nM.
Compound `COC(=O)Nc1nc2ccc(-c3ccc4c(c3)CN(C(=O)N3[C@@H]5CC[C@H]3C[C@](O)(C(F)(F)F)C5)CCO4)cc2[nH]1` [Compound 20, methyl [6-(4-{[3-(endo)-hydroxy-3-(trifluoromethyl)-8-azabicyclo[3.2.1]oct-8-yl]carbonyl}-2,3,4,5-tetrahydro-1,4-benzoxazepin-7-yl)-1H-benzimidazol-2-yl]carbamate] has an IC50 (mTORC1 (mTOR/GbL/Raptor)) of no more than 50 nM and an IC50 (PI3Kα) of no more than 75 nM.
For `Cc1nc2ccc(-c3ccc4c(c3)CN(C(=O)N3CCc5ccccc5C3)CCO4)cc2[nH]1` [Compound 113, 4-(3,4-dihydroisoquinolin-2(1H)-ylcarbonyl)-7-(2-methyl-1H-benzimidazol-6-yl)-2,3,4,5-tetrahydro-1,4-benzoxazepine], the IC50 (mTORC1 (mTOR/GbL/Raptor)) was 50 to 250 nM and the IC50 (PI3Kα) was 500 to 1000 nM.
Compound `COC(=O)Nc1nc2ccc(-c3ccc4c(c3)CN(C(=O)N3CCC(=O)CC3c3ccc(F)c(F)c3)CCO4)cc2[nH]1` (stereo not drawn) [Compound 16, methyl [6-(4-{[2-(3,4-difluorophenyl)-4-oxopiperidin-1-yl]carbonyl}-2,3,4,5-tetrahydro-1,4-benzoxazepin-7-yl)-1H-benzimidazol-2-yl]carbamate] has an IC50 (mTORC1 (mTOR/GbL/Raptor)) of 50 to 250 nM and an IC50 (PI3Kα) of no more than 75 nM.
In the case of `O=C1CCN(C(=O)N2CCOc3ccc(-c4ccc(-c5ncc[nH]5)cc4)cc3C2)C(c2cccc(F)c2)C1` (stereo not drawn) [Compound 55, 2-(3-fluorophenyl)-1-({7-[4-(1H-imidazol-2-yl)phenyl]-2,3-dihydro-1,4-benzoxazepin-4(5H)-yl}carbonyl)piperidin-4-one], the IC50 (mTORC1 (mTOR/GbL/Raptor)) is reported as no more than 50 nM and the IC50 (PI3Kα) is reported as no more than 75 nM.
For `Cc1nc2ccc(-c3ccc4c(c3)CN(C(=O)N3CCC(c5ccccc5)CC3)CCO4)cc2[nH]1` [Compound 170, 7-(2-methyl-1H-benzimidazol-6-yl)-4-[(4-phenylpiperidin-1-yl)carbonyl]-2,3,4,5-tetrahydro-1,4-benzoxazepine], the IC50 (mTORC1 (mTOR/GbL/Raptor)) was 50 to 250 nM and the IC50 (PI3Kα) was 1000 to 3000 nM.
Work on `Cc1nc2ccc(-c3ccc4c(c3)CN(C(=O)N3CCCCC3c3ccc(F)cc3)CCO4)cc2[nH]1` (stereo not drawn) [Compound 73, 4-{[2-(4-fluorophenyl)piperidin-1-yl]carbonyl}-7-(2-methyl-1H-benzimidazol-6-yl)-2,3,4,5-tetrahydro-1,4-benzoxazepine] yielded an IC50 (mTORC1 (mTOR/GbL/Raptor)) of no more than 50 nM and an IC50 (PI3Kα) of no more than 75 nM.
In the case of `O=C(N1CCC(C(F)(F)F)CC1)N1CCOc2ccc(-c3ccc(-c4ncc[nH]4)cc3)cc2C1` [Compound 7, 7-[4-(1H-imidazol-2-yl)phenyl]-4-{[4-(trifluoromethyl)piperidin-1-yl]carbonyl}-2,3,4,5-tetrahydro-1,4-benzoxazepine], the IC50 (mTORC1 (mTOR/GbL/Raptor)) is reported as no more than 50 nM and the IC50 (PI3Kα) is reported as no more than 75 nM.
In the case of `Cc1nc2ccc(-c3ccc4c(c3)CN(C(=O)N3CCC(Cc5ccccc5)C3)CCO4)cc2[nH]1` (stereo not drawn) [Compound 100, 7-(2-methyl-1H-benzimidazol-6-yl)-4-{[3-(phenylmethyl)pyrrolidin-1-yl]carbonyl}-2,3,4,5-tetrahydro-1,4-benzoxazepine], the IC50 (mTORC1 (mTOR/GbL/Raptor)) is reported as 250 to 700 nM and the IC50 (PI3Kα) is reported as 500 to 1000 nM.
With `Nc1nc2ncc(-c3ccc4c(c3)CN(C(=O)N3[C@@H]5CC[C@H]3C[C@](O)(C(F)(F)F)C5)CCO4)cc2[nH]1` [Compound 49, 8-{[7-(2-amino-1H-imidazo[4,5-b]pyridin-6-yl)-2,3-dihydro-1,4-benzoxazepin-4(5H)-yl]carbonyl}-3-(trifluoromethyl)-8-azabicyclo[3.2.1]octan-3-(endo)-ol] the IC50 (mTORC1 (mTOR/GbL/Raptor)) was no more than 50 nM and the IC50 (PI3Kα) was no more than 75 nM.
For `CC1CCN(C(=O)N2CCOc3ccc(-c4cnc(N)nc4)cc3C2)CC1` [Compound 3, 5-{4-[(4-methylpiperidin-1-yl)carbonyl]-2,3,4,5-tetrahydro-1,4-benzoxazepin-7-yl}pyrimidin-2-amine], the IC50 (mTORC1 (mTOR/GbL/Raptor)) was 700 to 2600 nM and the IC50 (PI3Kα) was 1000 to 3000 nM.
`Cc1nc2ccc(-c3ccc4c(c3)CN(C(=O)N3CCN(c5cccc(Cl)c5)CC3)CCO4)cc2[nH]1` [Compound 176, 4-{[4-(3-chlorophenyl)piperazin-1-yl]carbonyl}-7-(2-methyl-1H-benzimidazol-6-yl)-2,3,4,5-tetrahydro-1,4-benzoxazepine] gave an IC50 (mTORC1 (mTOR/GbL/Raptor)) of 50 to 250 nM and an IC50 (PI3Kα) of 1000 to 3000 nM.
With `Cc1nc2ccc(-c3ccc4c(c3)CN(C(=O)N3CCCCC3c3cc(F)c(F)c(F)c3)CCO4)cc2[nH]1` (stereo not drawn) [Compound 129, 7-(2-methyl-1H-benzimidazol-6-yl)-4-{[2-(3,4,5-trifluorophenyl)piperidin-1-yl]carbonyl}-2,3,4,5-tetrahydro-1,4-benzoxazepine] the IC50 (mTORC1 (mTOR/GbL/Raptor)) was no more than 50 nM and the IC50 (PI3Kα) was 75 to 200 nM.
`CC1(O)CCN(C(=O)N2CCOc3ccc(-c4ccc5nc(N)[nH]c5c4)cc3C2)CC1` [Compound 23, 1-{[7-(2-amino-1H-benzimidazol-6-yl)-2,3-dihydro-1,4-benzoxazepin-4(5H)-yl]carbonyl}-4-methylpiperidin-4-ol] showed an IC50 (mTORC1 (mTOR/GbL/Raptor)) of no more than 50 nM and an IC50 (PI3Kα) of 75 to 200 nM.
Work on `Cc1nc2ccc(-c3ccc4c(c3)CN(C(=O)N3CCN(c5ccccc5)CC3)CCO4)cc2[nH]1` [Compound 174, 7-(2-methyl-1H-benzimidazol-6-yl)-4-[(4-phenylpiperazin-1-yl)carbonyl]-2,3,4,5-tetrahydro-1,4-benzoxazepine] yielded an IC50 (mTORC1 (mTOR/GbL/Raptor)) of 250 to 700 nM and an IC50 (PI3Kα) of 500 to 1000 nM.
Work on `CC(=O)Nc1ncc(-c2ccc3c(c2)CN(C(=O)N2CCC(C)CC2)CCO3)s1` [Compound 5, N-(5-{4-[(4-methylpiperidin-1-yl)carbonyl]-2,3,4,5-tetrahydro-1,4-benzoxazepin-7-yl}-1,3-thiazol-2-yl)acetamide] yielded an IC50 (mTORC1 (mTOR/GbL/Raptor)) of 250 to 700 nM and an IC50 (PI3Kα) of 1000 to 3000 nM.
`Cc1nc2ccc(-c3ccc4c(c3)CN(C(=O)N3CCC(F)(F)CC3c3ccccc3)CCO4)cc2[nH]1` (stereo not drawn) [Compound 138, 4-[(4,4-difluoro-2-phenylpiperidin-1-yl)carbonyl]-7-(2-methyl-1H-benzimidazol-6-yl)-2,3,4,5-tetrahydro-1,4-benzoxazepine] showed an IC50 (mTORC1 (mTOR/GbL/Raptor)) of 50 to 250 nM and an IC50 (PI3Kα) of 500 to 1000 nM.
For `Cc1nc2ccc(-c3ccc4c(c3)CN(C(=O)N3CC[C@H](CF)C[C@@H]3c3ccc(F)c(F)c3)CCO4)cc2[nH]1` (racemic) [Compound 147, (±)-4-{[(2R,4S)-2-(3,4-difluorophenyl)-4-(fluoromethyl)piperidin-1-yl]carbonyl}-7-(2-methyl-1H-benzimidazol-6-yl)-2,3,4,5-tetrahydro-1,4-benzoxazepine], the IC50 (mTORC1 (mTOR/GbL/Raptor)) was 250 to 700 nM and the IC50 (PI3Kα) was 1000 to 3000 nM.
